Test results published in PubChem BioAssay AID248 (DTP/NCI, 2004).
Values joined by “and” are separate entries in the source; they are usually repeats but may differ in a detail not shown here. Identical values can stand only once. Inconclusive results and toxic doses are left out.

Tested on: L1210 leukemia ip in BDF1 mice, survival T/C
Assay: NCI In Vivo Anticancer Drug Screen. Data for tumor model L1210 Leukemia (intraperitoneal) in B6D2F1 (BDF1) mice
Conditions: endpoint: mean survival time, higher = longer survival
Method in brief: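 Tumor cells were implanted, animals were treated, and survival was followed. The result divides the treated measurement by the vehicle-control measurement.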

[1] = dose: 50.0 mg/kg/injection, schedule: Q01DX009 (ip), vehicle: Klucel (hydroxypropylcellulose) (HPC)
[2] = dose: 100.0 mg/kg/injection, schedule: Q01DX009 (ip), vehicle: Klucel (hydroxypropylcellulose) (HPC)
[3] = dose: 100.0 mg/kg/injection, schedule: Q01DX001 (ip), vehicle: saline with Tween-80
[4] = dose: 200.0 mg/kg/injection, schedule: Q01DX001 (ip), vehicle: saline with Tween-80
[5] = dose: 400.0 mg/kg/injection, schedule: Q01DX001 (ip), vehicle: saline with Tween-80
[6] = dose: 100.0 mg/kg/injection, schedule: Q01DX009 (ip), vehicle: saline with Tween-80
[7] = dose: 200.0 mg/kg/injection, schedule: Q01DX009 (ip), vehicle: saline with Tween-80
[8] = dose: 100.0 mg/kg/injection, schedule: Q01DX001 (ip), vehicle: saline
[9] = dose: 200.0 mg/kg/injection, schedule: Q01DX001 (ip), vehicle: saline
[10] = dose: 400.0 mg/kg/injection, schedule: Q01DX001 (ip), vehicle: saline
[11] = dose: 50.0 mg/kg/injection, schedule: Q01DX009 (ip), vehicle: saline with Tween-80
[12] = dose: 100.0 mg/kg/injection, schedule: Q04DX003 (ip), vehicle: saline with Tween-80
[13] = dose: 200.0 mg/kg/injection, schedule: Q04DX003 (ip), vehicle: saline with Tween-80
[14] = dose: 400.0 mg/kg/injection, schedule: Q04DX003 (ip), vehicle: saline with Tween-80
[15] = dose: 100.0 mg/kg/injection, schedule: Q04DX003 (ip), vehicle: Klucel (hydroxypropylcellulose) (HPC)
[16] = dose: 200.0 mg/kg/injection, schedule: Q04DX003 (ip), vehicle: Klucel (hydroxypropylcellulose) (HPC)
[17] = dose: 400.0 mg/kg/injection, schedule: Q04DX003 (ip), vehicle: Klucel (hydroxypropylcellulose) (HPC)
[18] = dose: 400.0 mg/kg/injection, schedule: Q01DX009 (ip), vehicle: saline with Tween-80

What does the source list for `Nc1cccc(Br)n1`?
T/C (dose: 37.5 mg/kg/injection, schedule: Q04DX002 (ip), vehicle: saline with Tween-80): 88 % of control; T/C (dose: 75.0 mg/kg/injection, schedule: Q04DX002 (ip), vehicle: saline with Tween-80): 91 % of control; T/C (dose: 150.0 mg/kg/injection, schedule: Q04DX002 (ip), vehicle: saline with Tween-80): 104 % of control

How did the T/C [1] turn out when `Nc1[nH]c(=O)ncc1-c1ccc(Cl)cc1` was run?
Its T/C is 96 % of control.

What about the T/C [2] of the same compound?
The T/C was 100 % of control.

How did the T/C [3] turn out when `NC(=O)c1cc([N+](=O)[O-])ccc1N1CC[N+](CCCl)=N1` was run?
The T/C was 100 % of control.

And the T/C [4]?
The T/C was 91 % of control.

And the T/C [5]?
Its T/C is 90 % of control.

Which T/C [6] does the source give for `CC1SC(=S)N(c2ccccc2)C1=O` (stereo unspecified) here?
The T/C was 92 % of control.

And the T/C [7]?
The T/C was 106 % of control.

Which results are given for `S=c1nc[nH]c2c1ncn2CN1CCOCC1`?
T/C (dose: 30.0 mg/kg/injection, schedule: Q01DX015 (ip), vehicle: saline): 119 % of control; T/C (dose: 42.0 mg/kg/injection, schedule: Q01DX009 (ip), vehicle: carboxymethylcellulose (CMC)): 118 % of control; T/C (dose: 80.0 mg/kg/injection, schedule: Q01DX015 (ip), vehicle: saline): 153 % of control; T/C (dose: 100.0 mg/kg/injection, schedule: Q01DX001 (ip), vehicle: carboxymethylcellulose (CMC)): 112 % of control; T/C [8]: 110 % of control; T/C (dose: 120.0 mg/kg/injection, schedule: Q01DX009 (ip), vehicle: carboxymethylcellulose (CMC)): 168 % of control; T/C (dose: 135.0 mg/kg/injection, schedule: Q01DX015 (ip), vehicle: saline): 152 % of control; T/C (dose: 177.0 mg/kg/injection, schedule: Q01DX001 (ip), vehicle: saline): 152 % of control; T/C [9]: 122 % of control; T/C (dose: 200.0 mg/kg/injection, schedule: Q01DX009 (ip), vehicle: carboxymethylcellulose (CMC)): 91 % of control; T/C (dose: 266.0 mg/kg/injection, schedule: Q01DX001 (ip), vehicle: saline): 163 % of control; T/C (dose: 400.0 mg/kg/injection, schedule: Q01DX001 (ip), vehicle: carboxymethylcellulose (CMC)): 164 % of control and 166 % of control; T/C [10]: 152 % of control; T/C (dose: 600.0 mg/kg/injection, schedule: Q01DX001 (ip), vehicle: saline): 152 % of control

Which results are given for `CN(C)CCCN1c2ccccc2C(C)(C)c2ccccc21`?
T/C (dose: 50.0 mg/kg/injection, schedule: Q01DX001 (ip), vehicle: saline): 96 % of control; T/C [11]: 104 % of control; T/C (dose: 50.0 mg/kg/injection, schedule: Q01DX009 (ip), vehicle: saline): 106 % of control; T/C [8]: 96 % of control; T/C [6]: 116 % of control; T/C (dose: 100.0 mg/kg/injection, schedule: Q01DX009 (ip), vehicle: saline): 118 % of control; T/C [12]: 107 % of control; T/C [9]: 104 % of control; T/C [13]: 102 % of control

With `Nc1cccc(/C=C/C=C\c2cccc([N+](=O)[O-])c2)c1` as the compound, how does the T/C [8] read?
Its T/C is 97 % of control.

What about the T/C [9] of the same compound?
The T/C was 94 % of control.

What about the T/C [10] of the same compound?
Its T/C is 92 % of control.

What does the source list for `O=C(N/N=C\c1ccc(-c2ccccc2)cc1)N/N=C/c1ccc(-c2ccccc2)cc1`?
T/C (dose: 100.0 mg/kg/injection, schedule: Q04DX003 (ip), vehicle: carboxymethylcellulose (CMC)): 90 % of control; T/C (dose: 200.0 mg/kg/injection, schedule: Q04DX003 (ip), vehicle: carboxymethylcellulose (CMC)): 87 % of control

For `CCCCCCOC(CN)C(Cl)(Cl)Cl` (stereo unspecified), which T/C (dose: 12.5 mg/kg/injection, schedule: Q04DX003 (ip), vehicle: saline with Tween-80) is on record?
The T/C was 107 % of control.

What about the T/C (dose: 25.0 mg/kg/injection, schedule: Q01DX009 (ip), vehicle: saline with Tween-80) of the same compound?
Its T/C is 116 % of control.

And the T/C (dose: 25.0 mg/kg/injection, schedule: Q04DX003 (ip), vehicle: saline with Tween-80)?
The T/C was 109 % of control.

And the T/C [11]?
Its T/C is 97 % of control.

What about the T/C (dose: 50.0 mg/kg/injection, schedule: Q04DX003 (ip), vehicle: saline with Tween-80) of the same compound?
The T/C was 102 % of control.

`O=C(CCCc1ccc([N+](=O)[O-])cc1)Nc1ccc(S(=O)(=O)F)cc1` was tested. Which T/C [8] did it give?
Its T/C is 101 % of control.

What about the T/C [9] of the same compound?
Its T/C is 100 % of control.

What about the T/C [10] of the same compound?
The T/C was 97 % of control.

With `N=C(N)c1ccc(-c2cc3cc(C(=N)N)ccc3s2)cc1` as the compound, how does the T/C (dose: 100.0 mg/kg/injection, schedule: Q04DX003 (ip), vehicle: saline) read?
Its T/C is 105 % of control.

With `CCCCCCCc1ccc(C(C)=O)cc1` as the compound, how does the T/C [12] read?
Its T/C is 100 % of control.

And the T/C (dose: 132.0 mg/kg/injection, schedule: Q04DX003 (ip), vehicle: saline with Tween-80)?
The T/C was 97 % of control.

What about the T/C [13] of the same compound?
Its T/C is 101 % of control.

What about the T/C (dose: 300.0 mg/kg/injection, schedule: Q04DX003 (ip), vehicle: saline with Tween-80) of the same compound?
The T/C was 93 % of control.

And the T/C [14]?
Its T/C is 108 % of control.

What does the source list for `CCCCC(CC)NC(=O)c1ccc(OC)cc1` (stereo unspecified)?
T/C (dose: 12.5 mg/kg/injection, schedule: Q01DX009 (ip), vehicle: Klucel (hydroxypropylcellulose) (HPC)): 106 % of control; T/C (dose: 25.0 mg/kg/injection, schedule: Q01DX009 (ip), vehicle: Klucel (hydroxypropylcellulose) (HPC)): 101 % of control; T/C (dose: 25.0 mg/kg/injection, schedule: Q04DX003 (ip), vehicle: Klucel (hydroxypropylcellulose) (HPC)): 105 % of control; T/C [1]: 95 % of control; T/C (dose: 50.0 mg/kg/injection, schedule: Q04DX003 (ip), vehicle: Klucel (hydroxypropylcellulose) (HPC)): 103 % of control; T/C [2]: 101 % of control; T/C [15]: 100 % of control; T/C [16]: 103 % of control; T/C [17]: 100 % of control

How did the T/C (dose: 50.0 mg/kg/injection, schedule: Q01DX009 (ip), vehicle: water) turn out when `NC(=O)c1nc(C(F)(F)F)[nH]c1C(N)=O` was run?
Its T/C is 96 % of control.

And the T/C (dose: 100.0 mg/kg/injection, schedule: Q01DX009 (ip), vehicle: water)?
The T/C was 102 % of control.

And the T/C (dose: 100.0 mg/kg/injection, schedule: Q04DX003 (ip), vehicle: water)?
Its T/C is 100 % of control.

And the T/C (dose: 200.0 mg/kg/injection, schedule: Q01DX009 (ip), vehicle: water)?
Its T/C is 109 % of control.

And the T/C (dose: 200.0 mg/kg/injection, schedule: Q04DX003 (ip), vehicle: water)?
Its T/C is 100 % of control.

And the T/C (dose: 300.0 mg/kg/injection, schedule: Q01DX009 (ip), vehicle: water)?
Its T/C is 91 % of control.

Which results are given for `COc1ccc(OC)c(-c2nnc(Nc3ccc(S(=O)(=O)N4CCCCC4)cc3)s2)c1`?
T/C [2]: 94 % of control; T/C (dose: 200.0 mg/kg/injection, schedule: Q01DX009 (ip), vehicle: Klucel (hydroxypropylcellulose) (HPC)): 91 % of control; T/C (dose: 400.0 mg/kg/injection, schedule: Q01DX009 (ip), vehicle: Klucel (hydroxypropylcellulose) (HPC)): 91 % of control

`COc1cccc(NC(=S)Nc2cccc(OC)c2)c1` was tested. Which T/C [3] did it give?
Its T/C is 108 % of control.

What about the T/C [6] of the same compound?
Its T/C is 95 % of control.

And the T/C (dose: 100.0 mg/kg/injection, schedule: Q04DX002 (ip), vehicle: saline with Tween-80)?
Its T/C is 91 % of control.

And the T/C [4]?
Its T/C is 104 % of control.

What about the T/C [7] of the same compound?
Its T/C is 92 % of control and 100 % of control.

And the T/C (dose: 200.0 mg/kg/injection, schedule: Q04DX002 (ip), vehicle: saline with Tween-80)?
The T/C was 94 % of control and 96 % of control.

What about the T/C [5] of the same compound?
The T/C was 101 % of control.

What about the T/C [18] of the same compound?
Its T/C is 90 % of control.

What about the T/C (dose: 400.0 mg/kg/injection, schedule: Q04DX002 (ip), vehicle: saline with Tween-80) of the same compound?
Its T/C is 104 % of control and 88 % of control.

What does the source list for `N#CCCn1cnc2c(N)ncnc21`?
T/C [6]: 96 % of control; T/C [12]: 103 % of control; T/C [7]: 96 % of control; T/C [13]: 103 % of control; T/C [18]: 91 % of control; T/C [14]: 104 % of control

For `O=C(OC(=O)c1cccc(-c2ccccc2)c1)c1cccc(-c2ccccc2)c1`, which T/C [15] is on record?
The T/C was 104 % of control.

And the T/C [16]?
Its T/C is 101 % of control.

And the T/C [17]?
Its T/C is 96 % of control.

Which results are given for `CC(/C=N/NC1=NCCN1)=N/NC1=NCCN1`?
T/C (dose: 15.7 mg/kg/injection, schedule: Q01DX Z (ip), vehicle: carboxymethylcellulose (CMC)): 104 % of control; T/C (dose: 31.5 mg/kg/injection, schedule: Q01DX Z (ip), vehicle: carboxymethylcellulose (CMC)): 101 % of control; T/C (dose: 63.0 mg/kg/injection, schedule: Q01DX Z (ip), vehicle: carboxymethylcellulose (CMC)): 102 % of control; T/C (dose: 126.0 mg/kg/injection, schedule: Q01DX Z (ip), vehicle: carboxymethylcellulose (CMC)): 103 % of control; T/C (dose: 127.0 mg/kg/injection, schedule: Q01DX Z (ip), vehicle: carboxymethylcellulose (CMC)): 106 % of control

Which T/C (dose: 100.0 mg/kg/injection, schedule: Q04DX003 (ip), vehicle: acetone) does the source give for `CCOC(=O)S(=O)(=O)c1ccc(C)cc1` here?
Its T/C is 106 % of control.

And the T/C (dose: 200.0 mg/kg/injection, schedule: Q04DX003 (ip), vehicle: acetone)?
Its T/C is 96 % of control.

What about the T/C (dose: 400.0 mg/kg/injection, schedule: Q04DX003 (ip), vehicle: acetone) of the same compound?
The T/C was 101 % of control.
